# Patent US9718828B2 (MERCK SHARP & DOHME CORP., priority 2011, dated 2017)
# pEC50, pIC50: −log10 of the molar value. Structures can show the parent of a compound that is named as a salt. Where two headings read alike, the source gives them in different places.
# Columns and labels:
# [1] = biological target: hBTK (full-length BTK, 6HIS-tag cleaved) (Homo sapiens (Human), UniProt Q06187); experiment: BTK enzymatic activity, LANCE TR-FRET assay (Assay Method C); type: biochemical; details: LANCE TR-FRET, 50 pM hBTK, 25 μM ATP; class 100-1000 is given as ≧100 nM-<1 μM; read-out: IC50 Btk activity values - Assay Method C
# Btk enzyme (His-Btk) = Btk enzyme (His-Btk) (Homo sapiens (Human), UniProt Q06187); experiment: Btk enzyme activity, IMAP fluorescence polarization assay (Assay Method A)
# [2] = read-out: EC50 Btk activity values - Assay Method A, IMAP-FP, 60 min pre-incubation, 5 μM ATP, class 100-1000 is given as ≧100 nM-<1 μM
# Btk enzyme (His-Btk), sequence (Q06187 whole entry): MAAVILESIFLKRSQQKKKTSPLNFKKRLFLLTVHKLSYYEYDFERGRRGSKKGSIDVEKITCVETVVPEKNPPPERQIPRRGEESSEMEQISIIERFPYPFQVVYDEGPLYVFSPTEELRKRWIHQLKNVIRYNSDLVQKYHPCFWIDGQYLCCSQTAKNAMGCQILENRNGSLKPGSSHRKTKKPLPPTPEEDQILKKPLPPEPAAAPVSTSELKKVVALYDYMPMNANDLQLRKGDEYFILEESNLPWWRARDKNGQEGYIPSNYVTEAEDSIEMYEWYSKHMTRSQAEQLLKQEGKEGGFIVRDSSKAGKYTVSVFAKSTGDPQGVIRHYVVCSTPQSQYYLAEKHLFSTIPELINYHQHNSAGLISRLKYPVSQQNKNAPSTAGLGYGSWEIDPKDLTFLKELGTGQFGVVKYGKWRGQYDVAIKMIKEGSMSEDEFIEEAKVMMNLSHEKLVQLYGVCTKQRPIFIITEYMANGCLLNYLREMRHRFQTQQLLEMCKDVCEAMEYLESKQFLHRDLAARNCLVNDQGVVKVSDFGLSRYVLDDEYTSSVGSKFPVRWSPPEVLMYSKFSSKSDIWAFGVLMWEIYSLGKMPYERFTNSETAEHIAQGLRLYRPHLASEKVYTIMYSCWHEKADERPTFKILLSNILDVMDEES
# hBTK (full-length BTK, 6HIS-tag cleaved), sequence (Q06187 whole entry): as above
SMILES,pIC50 [1],other results
"Nc1nccn2c([C@@H]3CCCN(C(=O)C4(O)CC4)C3)nc(-c3ccc(C(=O)Nc4cc(C(F)(F)F)ccn4)cc3)c12 [Example 342, 4-(8-amino-3-{(3R)-1-[(1-hydroxycyclopropyl)carbonyl]piperidin-3-yl}imidazo[1,5-a]pyrazin-1-yl)-N-[4-(trifluoromethyl)pyridin-2-yl]benzamide]",> 8.00,
"CO[C@H](C)c1cnc(N)c2c(-c3ccc(C(=O)Nc4cc(C(F)(F)F)ccn4)cc3)nc([C@@H]3CCCN(C(=O)C4(C)COC4)C3)n12 [Example 467, 4-(8-amino-5-[(1R)-1-methoxyethyl]-3-{(3R)-1-[(3-methyloxetan-3-yl)carbonyl]piperidin-3-yl}imidazo[1,5-a]pyrazin-1-yl)-N-[4-(trifluoromethyl)pyridin-2-yl]benzamide]",> 8.00,
"Nc1ncc(Cl)n2c([C@H]3CN(C(=O)C4(O)CC4)CCO3)nc(-c3ccc(C(=O)Nc4cc(C(F)(F)F)ccn4)cc3)c12 [Example 525, 4-(8-amino-5-chloro-3-{(2R)-4-[(1-hydroxycyclopropyl)carbonyl]morpholin-2-yl}imidazo[1,5-a]pyrazin-1-yl)-N-[4-(trifluoromethyl)pyridin-2-yl]benzamide]",> 8.00,
"Cc1cnc(N)c2c(-c3ccc(C(=O)Nc4cc(C(C)(F)F)ccn4)cc3)nc([C@@H]3CCCN(C(=O)C4(C)COC4)C3)n12 [Example 454, 4-(8-amino-5-methyl-3-{(3R)-1-[(3-methyloxetan-3-yl)carbonyl]piperidin-3-yl}imidazo[1,5-a]pyrazin-1-yl)-N-[4-(1,1-difluoroethyl)pyridin-2-yl]benzamide]",> 8.00,
"COc1ccnc(NC(=O)c2ccc(-c3nc([C@@H]4CCCN(C(=O)C5(C)COC5)C4)n4c(Cl)cnc(N)c34)cc2)c1 [Example 444, 4-(8-amino-5-chloro-3-{(3R)-1-[(3-methyloxetan-3-yl)carbonyl]piperidin-3-yl}imidazo[1,5-a]pyrazin-1-yl)-N-(4-methoxypyridin-2-yl)benzamide]",> 8.00,
"CC1(CN2CCC[C@@H](c3nc(-c4ccc(C(=O)Nc5cc(C(F)(F)F)ccn5)cc4)c4c(N)nccn34)C2)COC1 [Example 338, 4-(8-amino-3-{(3R)-[(3-methyloxetan-3-yl)methyl]piperidin-3-yl}imidazo[1,5-a]pyrazin-1-yl)-N-[4-(trifluoromethyl)pyridin-2-yl]benzamide]",> 8.00,
"Nc1ncc(Cl)n2c([C@H]3CNCCO3)nc(-c3ccc(C(=O)Nc4cc(C(F)(F)F)ccn4)cc3)c12 [Example 504, 4-{8-amino-5-chloro-3-[(2R)-morpholin-2-yl]imidazo[1,5-a]pyrazin-1-yl}-N-[4-(trifluoromethyl)pyridin-2-yl]benzamide]",> 8.00,
"CC1(C(=O)N2CCC[C@@H](n3nc(-c4ccc(C(=O)Nc5cc(C(F)(F)F)ccn5)cc4)c4c(N)nccc43)C2)COC1 [Example 381, 4-(4-amino-1-{(3R)-1-[(3-methyloxetan-3-yl)carbonyl]piperidin-3-yl}-1H-pyrazolo[4,3-c]pyridin-3-yl)-N-[4-(trifluoromethyl)pyridin-2-yl]benzamide]",> 8.00,
"CC1(C(=O)N2CCC[C@@H](c3nc(-c4ccc(C(=O)Nc5cc(C(F)(F)F)ccn5)cc4)c4c(N)ncc(CO)n34)C2)COC1 [Example 471, 4-[8-amino-5-(hydroxymethyl)-3-{(3R)-1-[(3-methyloxetan-3-yl)carbonyl]piperidin-3-yl}imidazo[1,5-a]pyrazin-1-yl]-N-[4-(trifluoromethyl)pyridin-2-yl]benzamide]",> 8.00,
"CCN1C[C@@H](c2nc(-c3ccc(C(=O)Nc4ccccn4)cc3)c3c(N)nccn23)CC[C@@H]1C(F)(F)F [Example 408, 4-{8-amino-3-[(3S,6R)-1-ethyl-6-(trifluoromethyl)piperidin-3-yl]imidazo[1,5-a]pyrazin-1-yl}-N-pyridin-2-ylbenzamide]",> 8.00,
"CCc1ccnc(NC(=O)c2ccc(-c3nc([C@@H]4CCCN(C(=O)C5(C)COC5)C4)n4ccnc(N)c34)cc2)c1 [Example 362, 4-(8-amino-3-{(3R)-1-[(3-methyloxetan-3-yl)carbonyl]piperidin-3-yl}imidazo[1,5-a]pyrazin-1-yl)-N-(4-ethylpyridin-2-yl)benzamide]",> 8.00,
"Nc1nccn2c([C@@H]3CCCN(C(=O)C4CC4(F)F)C3)nc(-c3ccc(C(=O)Nc4cc(C(F)(F)F)ccn4)cc3)c12 (stereo partly drawn) [Example 344, 4-(8-amino-3-{(3R)-1-[(2,2-difluorocyclopropyl)carbonyl]piperidin-3-yl}imidazo[1,5-a]pyrazin-1-yl)-N-[4-(trifluoromethyl)pyridin-2-yl]benzamide]",> 8.00,
"CCN1CCO[C@H](c2nc(-c3ccc(C(=O)Nc4cc(C(F)(F)F)ccn4)cc3)c3c(N)nccn23)C1 [Example 534, 4-{8-amino-3-[(2S)-4-ethylmorpholin-2-yl]imidazo[1,5-a]pyrazin-1-yl}-N-[4-(trifluoromethyl)pyridin-2-yl]benzamide]",7.00 to 8.00,
"COCCN1CCO[C@@H](c2nc(-c3ccc(C(=O)Nc4cc(C(F)(F)F)ccn4)cc3)c3c(N)nccn23)C1 [Example 491, (R)-4-(8-amino-3-(4-(2-methoxyethyl)morpholin-2-yl)imidazo[1,5-a]pyrazin-1-yl)-N-(4-(trifluoromethyl)pyridin-2-yl)benzamide]",> 8.00,
"CCN1CCC(c2nc(-c3ccc(C(=O)Nc4cc(C(F)(F)F)ccn4)cc3)c3c(N)nccn23)CC1=O (centres unmarked) [Example 573, 4-[8-amino-3-(1-ethyl-2-oxopiperidin-4-yl)imidazo[1,5-a]pyrazin-1-yl]-N-[4-(trifluoromethyl)-pyridin-2-yl]benzamide, TFA salt]",7.00 to 8.00,
"CC1(C(=O)N2CCC[C@@H](c3nc(-c4ccc(C(=O)Nc5ccc(Cl)cn5)cc4)c4c(N)nccn34)C2)COC1 [Example 358, 4-(8-amino-3-{(3R)-1-[(3-methyloxetan-3-yl)carbonyl]piperidin-3-yl}imidazo[1,5-a]pyrazin-1-yl)-N-(5-chloropyridin-2-yl)benzamide]",> 8.00,
"CC1(C(=O)N2CCC[C@@H](c3nc(-c4ccc(C(=O)Nc5ccc(C(F)(F)F)cn5)cc4)c4c(N)nccn34)C2)COC1 [Example 359, 4-(8-amino-3-{(3R)-1-[(3-methyloxetan-3-yl)carbonyl]piperidin-3-yl}imidazo[1,5-a]pyrazin-1-yl)-N-[5-(trifluoromethyl)pyridin-2-yl]benzamide]",7.00 to 8.00,
"CCC(=O)N1CCC[C@@H](c2nc(-c3ccc(C(=O)Nc4ccccn4)cc3)c3c(N)nccn23)C1 [Example 46, (R)-4-(8-amino-3-(1-propionylpiperidin-3-yl)imidazo[1,5-a]pyrazin-1-yl)-N-(pyridin-2-yl)benzamide]",,pEC50 (Btk enzyme (His-Btk)): > 8.00
"Cc1noc(C)c1C(=O)N1CCC[C@@H](c2nc(-c3ccc(C(=O)Nc4cc(C(F)(F)F)ccn4)cc3)c3c(N)nccn23)C1 [Example 74, (R)-4-(8-amino-3-(1-(3,5-dimethylisoxazole-4-carbonyl)piperidin-3 yl)imidazo[1,5-a]pyrazin-1-yl)-N-(4-(trifluoromethyl)pyridin-2-yl)benzamide]",,pEC50 (Btk enzyme (His-Btk)): > 8.00
"CCCc1ccnc(NC(=O)c2ccc(-c3nc(N(CC)CC)n4ccnc(N)c34)cc2)c1 [Example 214, 4-(8-amino-3-(diethylamino)imidazo[1,5-a]pyrazin-1-yl)-N-(4-propylpyridin-2-yl)benzamide]",,pEC50 (Btk enzyme (His-Btk); [2]): > 8.00
"Cc1noc([C@H]2C[C@@H]2C(=O)N2CCC[C@@H](c3nc(-c4ccc(C(=O)Nc5cc(C(F)(F)F)ccn5)cc4)c4c(N)nccn34)C2)n1 [Example 82, 4-(8-amino-3-((R)-1-((1S,2S)-2-(3-methyl-1,2,4-oxadiazol-5-yl)cyclopropanecarbonyl)piperidin-3-yl)imidazo[1,5-a]pyrazin-1-yl)-N-(4-(trifluoromethyl)pyridin-2-yl)benzamide]",,pEC50 (Btk enzyme (His-Btk)): > 8.00
"NCCCCC(=O)N1CCC[C@@H](c2nc(-c3ccc(C(=O)Nc4ccccn4)cc3)c3c(N)nccn23)C1 [Example 54, (R)-4-(8-amino-3-(1-(5-aminopentanoyl)piperidin-3-yl)imidazo[1,5-a]pyrazin-1-yl)-N-(pyridin-2-yl)benzamide]",,pEC50 (Btk enzyme (His-Btk)): 7.00 to 8.00
"CC1(C(=O)N2CCC[C@@H](c3nc(-c4ccc(C(=O)Nc5cc(C(F)(F)F)ccn5)cc4)c4c(N)ncc(C5=CCOCC5)n34)C2)COC1 [Example 322, (R)-4-(8-amino-5-(3,6-dihydro-2H-pyran-4-yl)-3-(1-(3-methyloxetane-3-carbonyl)piperidin-3-yl)imidazo[1,5-a]pyrazin-1-yl)-N-(4-(trifluoromethyl)pyridin-2-yl)benzamide]",,pEC50 (Btk enzyme (His-Btk)): 7.00 to 8.00
"CC(C)(F)C(=O)N[C@@H]1CCC[C@@H](c2nc(-c3ccc(C(=O)Nc4cc(C(F)(F)F)ccn4)cc3)c3c(N)nccn23)C1 (relative stereo) [Example 163, 4-(8-amino-3-((trans)-3-(2-fluoro-2-methylpropanamido)cyclohexyl)imidazo[1,5-a]pyrazin-1-yl)-N-(4-(trifluoromethyl)pyridin-2-yl)benzamide]",,pEC50 (Btk enzyme (His-Btk); [2]): > 8.00
"Nc1nccn2c([C@@H]3CCCN(CCC(F)(F)F)C3)nc(-c3ccc(C(=O)Nc4ccccn4)cc3)c12 [Example 136, (R)-4-(8-amino-3-(1-(3,3,3-trifluoropropyl)piperidin-3-yl)imidazo[1,5-a]pyrazin-1-yl)-N-(pyridin-2-yl)benzamide TFA salt]",,pEC50 (Btk enzyme (His-Btk)): 7.00 to 8.00
"Nc1nccn2c(N3CCCC(C(=O)NCC4CC4)C3)nc(-c3ccc(C(=O)Nc4cc(C5CC5)ccn4)cc3)c12 (centres unmarked) [Example 245, 1-(8-amino-1-(4-(4-cyclopropylpyridin-2-ylcarbamoyl)phenyl)imidazo[1,5-a]pyrazin-3-yl)-N-(cyclopropylmethyl)piperidine-3-carboxamide, TFA salt]",,pEC50 (Btk enzyme (His-Btk); [2]): > 8.00
